Key:
ROCK2 kinase = target: T1, ROCK2 kinase (Homo sapiens, UniProt O75116); assay: In vitro evaluation of ROCK2 kinase activity (HTRF KinEASE-STK time-resolved fluorometric assay); type: biochemical; conditions: ROCK2 kinase 0.4 ng/μL, ATP 6.739 μM
T1 construct: purchased Invitrogen PV3759
Procedure, shortened: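 Recombinant kinase (0.4 ng/μL final) preincubated 0.5 h at RT with compound (1% DMSO), then 2 h with 6.739 μM ATP and 1 μM biotinylated STK substrate 2 (final). HTRF readout via STK antibody-cryptate/streptavidin-XL665 after ~1 h; buffer 5 mM MgCl2, 1 mM DTT.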

ROCK1 kinase = target: T2, ROCK1 kinase (Homo sapiens, UniProt Q13464); assay: In vitro evaluation of ROCK1 kinase selectivity (HTRF KinEASE-STK time-resolved fluorometric assay); type: biochemical; conditions: ROCK1 kinase 0.4 ng/μL, ATP 3.53 μM
T2 construct: purchased Invitrogen
T2 sequence (Q13464 whole entry): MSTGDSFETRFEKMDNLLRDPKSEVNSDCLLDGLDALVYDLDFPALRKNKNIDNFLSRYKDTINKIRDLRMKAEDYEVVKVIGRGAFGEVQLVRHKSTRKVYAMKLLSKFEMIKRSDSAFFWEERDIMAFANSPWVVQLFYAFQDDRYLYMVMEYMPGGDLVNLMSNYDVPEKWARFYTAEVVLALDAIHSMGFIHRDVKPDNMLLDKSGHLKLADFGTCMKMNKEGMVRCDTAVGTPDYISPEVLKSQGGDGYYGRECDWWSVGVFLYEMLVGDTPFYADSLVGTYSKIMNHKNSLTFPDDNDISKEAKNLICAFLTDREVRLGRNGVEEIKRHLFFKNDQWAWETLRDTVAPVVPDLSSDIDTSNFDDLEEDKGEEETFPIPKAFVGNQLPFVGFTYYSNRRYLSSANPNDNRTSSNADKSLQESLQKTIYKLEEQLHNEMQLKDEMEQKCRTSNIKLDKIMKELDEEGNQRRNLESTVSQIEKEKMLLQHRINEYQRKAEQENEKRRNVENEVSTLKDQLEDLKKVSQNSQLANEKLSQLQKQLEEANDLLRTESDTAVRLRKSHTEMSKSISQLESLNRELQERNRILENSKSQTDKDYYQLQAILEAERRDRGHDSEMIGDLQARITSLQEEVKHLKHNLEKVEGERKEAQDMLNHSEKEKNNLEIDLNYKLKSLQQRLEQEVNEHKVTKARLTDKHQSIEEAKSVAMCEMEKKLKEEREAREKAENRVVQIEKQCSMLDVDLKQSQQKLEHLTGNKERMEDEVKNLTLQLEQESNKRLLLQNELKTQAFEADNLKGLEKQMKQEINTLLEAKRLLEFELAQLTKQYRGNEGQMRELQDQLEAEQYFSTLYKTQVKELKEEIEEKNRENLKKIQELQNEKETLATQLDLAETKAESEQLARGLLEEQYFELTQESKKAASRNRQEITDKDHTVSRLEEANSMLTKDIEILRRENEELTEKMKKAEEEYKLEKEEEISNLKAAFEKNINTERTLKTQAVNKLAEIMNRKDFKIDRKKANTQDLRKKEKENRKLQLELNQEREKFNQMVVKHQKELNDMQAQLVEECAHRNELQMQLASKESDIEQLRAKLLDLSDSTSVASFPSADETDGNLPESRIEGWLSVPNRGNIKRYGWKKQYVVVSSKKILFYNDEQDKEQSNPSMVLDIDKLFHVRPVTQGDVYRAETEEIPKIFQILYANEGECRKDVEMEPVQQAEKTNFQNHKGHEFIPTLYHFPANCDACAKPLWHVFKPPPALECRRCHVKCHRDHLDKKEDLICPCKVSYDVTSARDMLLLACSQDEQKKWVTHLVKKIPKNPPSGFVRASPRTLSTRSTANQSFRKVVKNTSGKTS
Procedure, shortened: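 HTRF KinEASE-STK assay with ROCK1 at 0.4 ng/μL final, preincubated with compound (1% DMSO) 0.5 h at room temperature. Reaction ran 2 h at room temperature with 3.53 μM ATP and 1 μM biotinylated STK-substrate 2, then detection via STK antibody-cryptate/streptavidin-XL665 after ~1 h.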

[1] = In vitro cytotoxicity assay in HepG2 cells using the CCK-8 method; type: cell-based; conditions: human
Procedure: In vitro cytotoxicity assay for the compounds disclosed herein was performed in HepG2 cells using the CCK-8 method. HepG2 cells (Beina Bio) in the logarithmic growth phase were collected, the concentration of cell suspension was adjusted, and then the cells were plated on a 96-well cell culture plate at 50,000 cells/well. The cells were then incubated overnight in a cell incubator (5%, 37° C.), and after 80-90% cell confluence was achieved, test compound at each concentration gradient or vehicle (DMSO) was added after medium change. The resulting mixture was incubated in the cell incubator (5%, 37° C.) for 48 h. After the treatment, the medium in the plate was discarded. The plate was washed twice with PBS, added with CCK-8 working solution (Beyotime) at 100 μL per well, and then incubated at 37° C. for 1.5 h in the dark. Absorbance at OD450 nm mil was measured for each well on a microplate reader, and CC50 value of each compound was analyzed and calculated.

[2] = In vitro metabolic stability, human liver microsome incubation; type: in vitro ADME; conditions: liver microsomes, 1 mg/mL protein, 37° C., read-out: T1/2 in human liver microsome
Procedure: (§1) The in vitro metabolic stability of the compounds disclosed herein was determined through incubation of liver microsomes of various species. A proper amount of test compound was added into a liver microsome reaction system (1 mg/mL liver microsome protein, 25 U/mL glucose-6 phosphate dehydrogenase, 1 mM NADP, 6 mM D-glucose 6-phosphate and 5 mM MgCl2), and then the mixture was incubated in a water bath kettle at 37° C. to start reaction. At each time point, 100 μL of the reaction liquid was added into a centrifuge tube containing 400 μL of internal standard working solution (containing a 200 ng/mL solution of dexamethasone, diclofenac, tolbutamide and labetalol in acetonitrile) precooled at 0° C. so as to stop the reaction, and the mixture was then centrifuged at 10,000 g for 10 min at 4° C. The supernatant was collected for LC-MS assay so as to obtain the values of in vitro metabolic half-life of the test compounds in liver microsomes of various species.

[3] = In vitro metabolic stability, rat liver microsome incubation; type: in vitro ADME; conditions: liver microsomes, 1 mg/mL protein, 37° C., read-out: T1/2 in rat liver microsome
Procedure: as §1

[4] = In vitro metabolic stability, guinea pig liver microsome incubation; type: in vitro ADME; conditions: liver microsomes, 1 mg/mL protein, 37° C., read-out: T1/2 in guinea pig liver microsome
Procedure: as §1

[5] = In vivo pharmacokinetic study in mice; conditions: mouse, plasma; for bioavailability: 1 mg/kg Po (fasted) vs 1 mg/kg Iv; for AUC(0-t) / Cmax: 1 mg/kg
From the text: […] After administration, plasma of mice was collected at specific time points, and the concentration of the compound in the plasma was detected by LC-MS/MS (AB SCIEX Qtrap4500). The PK parameters of the compounds were statistically analyzed and calculated (WinNonlin V5.2, Pharsight) to show the pharmacokinetic properties of the compounds disclosed herein in mice.

T1 sequence (O75116 whole entry): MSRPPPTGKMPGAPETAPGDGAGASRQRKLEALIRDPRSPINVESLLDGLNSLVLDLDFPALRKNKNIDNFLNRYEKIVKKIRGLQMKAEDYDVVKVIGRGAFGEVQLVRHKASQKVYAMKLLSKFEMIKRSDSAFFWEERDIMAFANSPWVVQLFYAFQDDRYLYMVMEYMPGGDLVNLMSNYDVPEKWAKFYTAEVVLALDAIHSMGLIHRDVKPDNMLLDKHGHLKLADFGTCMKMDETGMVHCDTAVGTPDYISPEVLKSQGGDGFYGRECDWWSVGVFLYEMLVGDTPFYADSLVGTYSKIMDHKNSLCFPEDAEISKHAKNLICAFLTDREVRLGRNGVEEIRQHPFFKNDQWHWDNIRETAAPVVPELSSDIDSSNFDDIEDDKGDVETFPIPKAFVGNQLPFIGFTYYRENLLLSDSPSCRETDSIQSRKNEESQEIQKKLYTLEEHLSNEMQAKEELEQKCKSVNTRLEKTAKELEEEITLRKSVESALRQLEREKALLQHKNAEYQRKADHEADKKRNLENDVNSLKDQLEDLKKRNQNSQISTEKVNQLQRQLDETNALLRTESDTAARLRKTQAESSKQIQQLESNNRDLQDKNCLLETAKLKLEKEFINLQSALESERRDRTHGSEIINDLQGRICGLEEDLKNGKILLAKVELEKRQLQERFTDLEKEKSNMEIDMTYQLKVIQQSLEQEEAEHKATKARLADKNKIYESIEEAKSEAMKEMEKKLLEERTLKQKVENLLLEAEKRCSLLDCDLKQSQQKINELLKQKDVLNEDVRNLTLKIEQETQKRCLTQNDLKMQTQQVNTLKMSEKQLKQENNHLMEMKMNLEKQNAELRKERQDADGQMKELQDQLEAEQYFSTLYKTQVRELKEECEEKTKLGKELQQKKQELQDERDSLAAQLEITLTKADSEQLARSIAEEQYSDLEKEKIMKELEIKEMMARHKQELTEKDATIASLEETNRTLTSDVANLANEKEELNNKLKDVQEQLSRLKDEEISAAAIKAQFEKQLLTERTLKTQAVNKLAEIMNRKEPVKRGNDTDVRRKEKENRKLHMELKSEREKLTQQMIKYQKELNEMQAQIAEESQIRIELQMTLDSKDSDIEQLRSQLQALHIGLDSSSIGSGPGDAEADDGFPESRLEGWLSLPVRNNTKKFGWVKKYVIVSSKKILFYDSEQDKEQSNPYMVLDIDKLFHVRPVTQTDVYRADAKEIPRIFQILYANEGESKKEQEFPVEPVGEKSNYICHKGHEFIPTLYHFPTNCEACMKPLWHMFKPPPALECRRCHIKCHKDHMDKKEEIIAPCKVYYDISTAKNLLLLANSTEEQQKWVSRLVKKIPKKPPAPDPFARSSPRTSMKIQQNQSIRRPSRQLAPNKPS

SMILES | IC50 (ROCK2 kinase) | IC50 (ROCK1 kinase) | half-life [2] | half-life [3] | half-life [4] | bioavailability [5] | AUC(0-t) ([5]; Iv) | Cmax ([5]; Iv) | AUC(0-t) ([5]; Po (fasted)) | Cmax ([5]; Po (fasted)) | CC50 at 48 h [1]
Cn1c(C(=O)N2CC(F)(F)C2)cc2c1CN(c1nccc(Nc3ccc(-c4cn[nH]c4)cc3)n1)CC2 [Compound L005, (6-(4-((4-(1H-pyrazol-4-yl)phenyl)amino)pyrimidin-2-yl)-1-methyl-4,5,6,7-tetrahydro-1H-pyrrolo[2,3-c]pyridin-2-yl)(3,3-difluoroazetidin-1-yl)methanone] | ≤ 0.05 µM | > 4.5 µM | 2.92 h | 1.72 h | 1.08 h | 59.7% | 120 ng·h/mL | 155 ng/mL | 71.8 ng·h/mL | 37.2 ng/mL | > 100 µM
Cn1c(C(=O)NCC(F)(F)F)cc2c1CN(c1nccc(Nc3ccc(-c4cn[nH]c4)cc3)n1)CC2 [Compound L017, 6-(4-((4-(1H-pyrazol-4-yl)phenyl)amino)pyrimidin-2-yl)-1-methyl-N-(2,2,2-trifluoroethyl)-4,5,6,7-tetrahydro-1H-pyrrolo[2,3-c]pyridine-2-carboxamide] | ≤ 0.05 µM | > 4.5 µM | 3.11 h | 1.21 h | 0.751 h | 12.2% | 872 ng·h/mL | 2570 ng/mL | 106 ng·h/mL | 41.3 ng/mL | 33.4 µM
Cn1c(C(=O)N2CC(F)(F)C2)cc2c1CN(c1ncc(F)c(Nc3ccc(-c4cn[nH]c4)cc3)n1)CC2 [Compound L027, (6-(4-((4-(1H-pyrazol-4-yl)phenyl)amino)-5-fluoropyrimidin-2-yl)-1-methyl-4,5,6,7-tetrahydro-1H-pyrrolo[2,3-c]pyridin-2-yl)(3,3-difluoroazetidin-1-yl)methanone] | ≤ 0.05 µM | > 4.5 µM | 0.956 h | 2.11 h | 10.3 h | 82.7% | 412 ng·h/mL | 517 ng/mL | 341 ng·h/mL | 116 ng/mL | > 100 µM
Cn1c(C(=O)N2CC(F)(F)C2)cc2c1CN(c1nc(F)cc(Nc3ccc(-c4cn[nH]c4)cc3)n1)CC2 [Compound L030, (6-(4-((4-(1H-pyrazol-4-yl)phenyl)amino)-6-fluoropyrimidin-2-yl)-1-methyl-4,5,6,7-tetrahydro-1H-pyrrolo[2,3-c]pyridin-2-yl)(3,3-difluoroazetidin-1-yl)methanone] | 0.05 to 0.5 µM | > 4.5 µM | 3.46 h | 2.64 h | 0.969 h | 30.6% | 726 ng·h/mL | 1120 ng/mL | 225 ng·h/mL | 60 ng/mL | > 100 µM
Cn1c(C(=O)N2CC(F)(F)C2)cc2c1CN(c1ncnc(Nc3ccc(-c4cn[nH]c4)cc3)n1)CC2 [Compound L036, (6-(4-((4-(1H-pyrazol-4-yl)phenyl)amino)-1,3,5-triazin-2-yl)-1-methyl-4,5,6,7-tetrahydro-1H-pyrrolo(2,3-c)pyridin-2-yl)(3,3-difluoroazetidin-1-yl)methanone] | 0.05 to 0.5 µM | > 4.5 µM | 2.97 h | 1.57 h | 1.25 h | 59.9% | 349 ng·h/mL | 473 ng/mL | 209 ng·h/mL | 98.7 ng/mL | > 100 µM

The next lines start with results.

IC50 (ROCK2 kinase) | IC50 (ROCK1 kinase) | half-life [2] | half-life [3] | half-life [4] | bioavailability [5] | AUC(0-t) ([5]; Iv) | Cmax ([5]; Iv) | AUC(0-t) ([5]; Po (fasted)) | Cmax ([5]; Po (fasted)) | SMILES | CC50 at 48 h [1]
0.05 to 0.5 µM | – | 7.32 h | 3.49 h | 2.83 h | 54.8% | 787 ng·h/mL | 594 ng/mL | 431 ng·h/mL | 109 ng/mL | Cc1nc(Nc2ccc(-c3cn[nH]c3)cc2)nc(N2CCc3cc(C(=O)N4CC(F)(F)C4)n(C)c3C2)n1 [Compound L044] | 58.1 µM
0.05 to 0.5 µM | > 4.5 µM | 3.17 h | 0.759 h | 2.18 h | – | – | – | – | – | Cn1c(C(=O)N2CC(F)(F)C2)cc2c1CN(c1nc(Nc3ccc(-c4cn[nH]c4)cc3)c3cccn3n1)CC2 [Compound L057, (6-(4-((4-(1H-pyrazol-4-yl)phenyl)amino)pyrrolo[2,1-f][1,2,4]triazin-2-yl)-1-methyl-4,5,6,7-tetrahydro-1H-pyrrolo[2,3-c]pyridin-2-yl)(3,3-difluoroazetidin-1-yl)methanone] | > 100 µM
≤ 0.05 µM | > 4.5 µM | 1.59 h | 1.16 h | 0.969 h | 54% | 266 ng·h/mL | 463 ng/mL | 144 ng·h/mL | 64.5 ng/mL | Cn1c(C(=O)N2CC(C(F)F)C2)cc2c1CN(c1nccc(Nc3ccc(-c4cn[nH]c4)cc3)n1)CC2 [Compound L060, (6-(4-((4-(1H-pyrazol-4-yl)phenyl)amino)pyrimidin-2-yl)-1-methyl-4,5,6,7-tetrahydro-1H-pyrrolo[2,3-c]pyridin-2-yl)(3-(difluoromethyl)azetidin-1-yl)methanone] | > 100 µM
